Read-outs that look alike come from different tables or passages of the source.
Legend:
Assay type in all cases: biochemical
PRAK = target: T1, PRAK (Homo sapiens, UniProt Q8IW41); experiment: Kinase profiling PRAK; conditions: for remaining activity at 100 µM: read-out: residual kinase activity, PRAK
T1 sequence (Q8IW41 1-473): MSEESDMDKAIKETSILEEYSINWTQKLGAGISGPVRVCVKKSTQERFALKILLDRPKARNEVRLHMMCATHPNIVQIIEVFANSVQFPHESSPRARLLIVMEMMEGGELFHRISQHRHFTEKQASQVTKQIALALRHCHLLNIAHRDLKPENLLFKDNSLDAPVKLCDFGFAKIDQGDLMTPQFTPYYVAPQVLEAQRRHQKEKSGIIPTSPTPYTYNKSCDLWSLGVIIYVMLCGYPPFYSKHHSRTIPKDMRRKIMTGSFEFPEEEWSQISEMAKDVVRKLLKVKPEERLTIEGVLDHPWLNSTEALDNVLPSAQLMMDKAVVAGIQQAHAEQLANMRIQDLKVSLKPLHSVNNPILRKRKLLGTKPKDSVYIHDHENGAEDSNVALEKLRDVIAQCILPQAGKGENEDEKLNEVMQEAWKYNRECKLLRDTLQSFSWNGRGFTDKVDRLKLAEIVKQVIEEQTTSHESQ
From the text: (§1) Any value less that 25 is considered to be highly significant inhibition.

FGF-R1 = FGF-R1 (Homo sapiens, UniProt P11362); experiment: Kinase profiling FGF-R1; conditions: for remaining activity at 100 µM: read-out: residual kinase activity, FGF-R1
Chain of FGF-R1 (P11362 22-822, species assumed): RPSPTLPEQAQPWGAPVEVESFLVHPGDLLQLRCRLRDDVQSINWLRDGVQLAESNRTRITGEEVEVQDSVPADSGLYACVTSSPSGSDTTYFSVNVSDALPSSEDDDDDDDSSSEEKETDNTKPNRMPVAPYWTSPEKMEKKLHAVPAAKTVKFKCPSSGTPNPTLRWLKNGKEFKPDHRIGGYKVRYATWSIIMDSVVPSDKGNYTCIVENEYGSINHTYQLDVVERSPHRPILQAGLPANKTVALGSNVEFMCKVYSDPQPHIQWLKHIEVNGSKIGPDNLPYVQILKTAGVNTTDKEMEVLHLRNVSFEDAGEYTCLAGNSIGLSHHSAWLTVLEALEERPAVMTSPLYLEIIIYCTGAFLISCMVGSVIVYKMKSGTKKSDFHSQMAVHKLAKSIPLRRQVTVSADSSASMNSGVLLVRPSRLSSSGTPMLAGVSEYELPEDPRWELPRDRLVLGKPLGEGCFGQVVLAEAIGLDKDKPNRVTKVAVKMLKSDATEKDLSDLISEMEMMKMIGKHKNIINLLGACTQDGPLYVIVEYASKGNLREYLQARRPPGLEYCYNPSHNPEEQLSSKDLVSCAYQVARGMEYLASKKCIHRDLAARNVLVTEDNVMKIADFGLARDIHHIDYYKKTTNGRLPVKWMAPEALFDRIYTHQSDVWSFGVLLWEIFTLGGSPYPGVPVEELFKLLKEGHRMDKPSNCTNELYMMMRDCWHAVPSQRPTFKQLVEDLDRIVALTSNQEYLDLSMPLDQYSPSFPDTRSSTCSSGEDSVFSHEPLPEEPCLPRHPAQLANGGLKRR
From the text: as §1

EPH-B2 = target: T2, EPH-B2 (Homo sapiens, UniProt P29323); experiment: Kinase profiling EPH-B2; conditions: for remaining activity at 100 µM: read-out: residual kinase activity, EPH-B2
T2 sequence (P29323 19-1055): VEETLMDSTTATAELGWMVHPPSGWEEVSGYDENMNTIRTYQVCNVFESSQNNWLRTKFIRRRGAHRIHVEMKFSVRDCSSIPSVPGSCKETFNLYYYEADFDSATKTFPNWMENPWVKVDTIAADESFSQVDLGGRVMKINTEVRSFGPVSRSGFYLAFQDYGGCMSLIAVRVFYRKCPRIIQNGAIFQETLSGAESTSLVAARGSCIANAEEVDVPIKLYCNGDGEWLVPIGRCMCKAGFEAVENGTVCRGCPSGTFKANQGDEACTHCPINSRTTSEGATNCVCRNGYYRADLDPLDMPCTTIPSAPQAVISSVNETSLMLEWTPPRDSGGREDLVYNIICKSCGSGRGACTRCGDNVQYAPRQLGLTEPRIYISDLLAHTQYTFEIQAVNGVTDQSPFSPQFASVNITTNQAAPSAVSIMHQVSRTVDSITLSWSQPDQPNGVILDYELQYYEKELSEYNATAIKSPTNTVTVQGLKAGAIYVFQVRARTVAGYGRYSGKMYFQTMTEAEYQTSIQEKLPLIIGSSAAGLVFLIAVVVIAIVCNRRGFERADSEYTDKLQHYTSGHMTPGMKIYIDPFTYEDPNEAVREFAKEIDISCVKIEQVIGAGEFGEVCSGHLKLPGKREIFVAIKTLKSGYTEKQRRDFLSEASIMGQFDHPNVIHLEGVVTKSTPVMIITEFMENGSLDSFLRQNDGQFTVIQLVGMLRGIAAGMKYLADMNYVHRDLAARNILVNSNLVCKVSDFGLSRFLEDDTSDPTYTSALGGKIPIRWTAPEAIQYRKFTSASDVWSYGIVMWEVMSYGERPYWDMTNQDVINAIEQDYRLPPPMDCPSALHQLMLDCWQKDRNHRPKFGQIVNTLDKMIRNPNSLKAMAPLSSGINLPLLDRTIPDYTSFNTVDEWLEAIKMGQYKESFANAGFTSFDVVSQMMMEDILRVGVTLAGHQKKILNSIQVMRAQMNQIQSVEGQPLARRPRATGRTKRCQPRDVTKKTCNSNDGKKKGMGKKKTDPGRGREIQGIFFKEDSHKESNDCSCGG
From the text: as §1

CK1γ2 = CK1γ2 (Homo sapiens, UniProt P78368); experiment: Kinase profiling CK1γ2; conditions: for remaining activity at 100 µM: read-out: residual kinase activity, CK1γ2
Chain of CK1γ2 (P78368 whole entry): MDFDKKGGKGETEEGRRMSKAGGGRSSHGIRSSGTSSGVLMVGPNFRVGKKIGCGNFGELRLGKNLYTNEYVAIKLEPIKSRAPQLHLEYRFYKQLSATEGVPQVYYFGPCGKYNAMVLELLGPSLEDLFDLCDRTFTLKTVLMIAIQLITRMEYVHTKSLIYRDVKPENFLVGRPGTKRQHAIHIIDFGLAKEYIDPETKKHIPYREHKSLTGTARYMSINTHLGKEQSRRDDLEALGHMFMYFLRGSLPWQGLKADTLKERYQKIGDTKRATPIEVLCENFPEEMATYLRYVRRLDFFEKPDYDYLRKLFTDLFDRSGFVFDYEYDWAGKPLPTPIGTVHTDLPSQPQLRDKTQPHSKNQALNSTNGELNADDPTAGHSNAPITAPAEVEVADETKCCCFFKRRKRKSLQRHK
From the text: as §1

MAP4K3 = target: T3, MAP4K3 (Homo sapiens, UniProt Q8IVH8); experiment: Kinase profiling MAP4K3; conditions: for remaining activity at 100 µM: read-out: residual kinase activity, MAP4K3
T3 sequence (Q8IVH8 1-894): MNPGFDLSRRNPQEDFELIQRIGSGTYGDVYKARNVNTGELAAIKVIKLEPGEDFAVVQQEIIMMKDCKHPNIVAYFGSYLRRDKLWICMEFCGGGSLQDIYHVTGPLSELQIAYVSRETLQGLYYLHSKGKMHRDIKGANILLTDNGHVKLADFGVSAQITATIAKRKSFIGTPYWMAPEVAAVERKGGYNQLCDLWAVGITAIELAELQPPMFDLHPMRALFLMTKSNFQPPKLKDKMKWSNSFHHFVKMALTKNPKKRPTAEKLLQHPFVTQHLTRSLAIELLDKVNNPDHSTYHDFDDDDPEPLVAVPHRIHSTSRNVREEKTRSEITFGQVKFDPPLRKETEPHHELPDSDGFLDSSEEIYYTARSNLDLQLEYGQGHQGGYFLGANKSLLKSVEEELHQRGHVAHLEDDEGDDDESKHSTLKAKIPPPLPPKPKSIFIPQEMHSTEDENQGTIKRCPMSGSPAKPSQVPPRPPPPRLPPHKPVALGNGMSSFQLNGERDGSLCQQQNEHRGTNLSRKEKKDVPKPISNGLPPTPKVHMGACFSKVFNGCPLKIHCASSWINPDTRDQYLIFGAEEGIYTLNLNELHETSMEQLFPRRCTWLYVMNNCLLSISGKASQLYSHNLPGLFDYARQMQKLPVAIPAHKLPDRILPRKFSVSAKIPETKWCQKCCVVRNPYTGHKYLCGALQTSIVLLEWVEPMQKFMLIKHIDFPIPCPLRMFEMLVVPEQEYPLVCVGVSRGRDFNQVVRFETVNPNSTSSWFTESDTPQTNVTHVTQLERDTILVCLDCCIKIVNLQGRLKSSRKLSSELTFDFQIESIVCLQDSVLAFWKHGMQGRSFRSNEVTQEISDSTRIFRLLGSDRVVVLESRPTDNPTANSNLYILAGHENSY
From the text: as §1

[1] = 100 micromolar inhibitor concentration, 100 is no change
[2] = 100 micromolar inhibitor, 100 = no change

Row | Structure (SMILES) | remaining activity at 100 µM (PRAK; [1]) [%] | remaining activity at 100 µM (FGF-R1; [1]) [%] | remaining activity at 100 µM (EPH-B2; [1]) [%] | remaining activity at 100 µM (CK1γ2; [1]) [%] | residual kinase activity, PRAK (PRAK; [1]) | residual kinase activity, FGF-R1 (FGF-R1; [1]) | residual kinase activity, MAP4K3 (MAP4K3; [1]) | residual kinase activity, EPH-B2 (EPH-B2; [1]) | residual kinase activity, CK1γ2 (CK1γ2; [1]) | other results
1 | CC(=O)Nc1nc2cc(O)ccc2s1 [Compound 01-66, N-(5-hydroxybenzo[d]thiazol-2-yl)acetamide] | – | – | – | – | – | – | – | – | – | remaining activity at 100 µM (PRAK): 58%; remaining activity at 100 µM (FGF-R1): 67%; remaining activity at 100 µM (EPH-B2): 70%; remaining activity at 100 µM (CK1γ2): 6%
2 | CC(=O)Nc1nc2ccc(O)cc2s1 [Compound 01-71] | 47 | 42 | 59 | 10 | – | – | – | – | – | –
3 | CC(=O)Nc1nc2ccc(C(F)(F)F)cc2s1 [Compound 01-90] | 111 | 40 | 38 | 59 | – | – | – | – | – | remaining activity at 100 µM (MAP4K3; [1]): 65%
4 | CC(=O)Nc1nc2ccc(C#N)cc2s1 [Compound 01-94] | 69 | 51 | 42 | 18 | – | – | – | – | – | remaining activity at 100 µM (MAP4K3; [1]): 52%
5 | CC(=O)Nc1cccc(NC(=O)c2nc3ccc(O)cc3s2)c1 [Compound 03-07, N-(3-acetamidophenyl)-6-hydroxybenzo[d]thiazole-2-carboxamide] | – | – | – | – | – | – | – | – | – | remaining activity at 100 µM (PRAK; [2]): 59%; remaining activity at 100 µM (FGF-R1; [2]): 66%; remaining activity at 100 µM (MAP4K3; [2]): 63%; remaining activity at 100 µM (EPH-B2; [2]): 110%; remaining activity at 100 µM (CK1γ2; [2]): 77%
6 | O=C(Nc1nc2cc(O)ccc2s1)c1ccncc1 [Compound 03-11] | – | – | – | – | 86 | 74 | 73 | 89 | 81 | –
7 | O=C(Nc1nc2ccc(O)cc2s1)c1ccccn1 [Compound 03-12] | – | – | – | – | 65 | 16 | 54 | 103 | 57 | –
8 | O=C(Nc1nc2cc(O)ccc2s1)c1ccccn1 [Compound 03-13] | – | – | – | – | 90 | 81 | 67 | 72 | 83 | –
9 | COc1ccc2sc(NC(C)=O)nc2c1 [Compound 03-21] | 71 | 104 | 96 | 6 | – | – | – | – | – | remaining activity at 100 µM (MAP4K3; [1]): 75%
10 | CC(=O)Nc1nc2ccccc2s1 [Compound 03-32] | – | – | – | – | 78 | 12 | 90 | 116 | 41 | –
11 | O=C(Nc1nc2cc(O)ccc2s1)c1cccnc1 [Compound 03-33] | – | – | – | – | 83 | 102 | 69 | 99 | 25 | –
12 | O=C(Nc1nc2ccc(O)cc2s1)c1ccccc1 [Compound 03-60] | – | – | – | – | 39 | 84 | 56 | 78 | 3 | –
13 | CC(=O)Nc1nc2cc(C(F)(F)F)ccc2s1 [Compound 03-73] | 87 | 109 | 98 | 79 | – | – | – | – | – | remaining activity at 100 µM (MAP4K3; [1]): 63%
14 | CC(=O)Nc1nc2cc(C)ccc2s1 [Compound 03-76] | – | – | – | – | 75 | 106 | 80 | 108 | 54 | –
15 | CC(=O)Nc1nc2cc(F)ccc2s1 [Compound 03-77] | 76 | 103 | 114 | 22 | – | – | – | – | – | remaining activity at 100 µM (MAP4K3; [1]): 55%
16 | O=C(Nc1nc2ccc(O)cc2s1)c1ccncc1 [Compound 08-42] | – | – | – | – | 74 | 54 | 48 | 99 | 62 | –
17 | O=C(Nc1nc2ccc(O)cc2s1)c1cccnc1 [Compound 08-44] | – | – | – | – | 60 | 56 | 56 | 91 | 20 | –

Source: patent US10231954B2, “Neurodegenerative therapies” (LYTIX BIOPHARMA AS, priority 2014, dated 2019)
